ChEMBL document CHEMBL1201862, “PubChem BioAssay data set” (2004)
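How tested: cells in 96-well plates exposed to compound for 48 hours at five concentrations. GI50 is the concentration that inhibits growth by half.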 Active and inactive are the calls of the source. No stated cut-off is given here; in the data, active = GI50 up to about 1.1 µM and inactive = higher.

Key:
Experiment in all cases: NCI anticancer screen, dose series, 48 h
A549 = system: A549
TK-10 = system: TK-10
SNB-19 = system: SNB-19
UO-31 = system: UO-31
OVCAR-5 = system: OVCAR-5
SK-MEL-5 = system: SK-MEL-5
MOLT-4 = system: MOLT-4
K562 = system: K562
HOP-92 = system: HOP-92
MDA-MB-435 = system: MDA-MB-435
T47D = system: T47D
SK-MEL-28 = system: SK-MEL-28
M14 = system: M14
Hs-578T = system: Hs-578T
CAKI-1 = system: CAKI-1
OVCAR-3 = system: OVCAR-3
SF-539 = system: SF-539
HCT-15 = system: HCT-15
MDA-N = system: MDA-N
NCI/ADR-RES = system: NCI/ADR-RES

| Structure (SMILES) | GI50 (A549) | GI50 (TK-10) | GI50 (SNB-19) | GI50 (UO-31) | GI50 (OVCAR-5) | GI50 (SK-MEL-5) | GI50 (MOLT-4) | GI50 (K562) | GI50 (HOP-92) | GI50 (MDA-MB-435) | GI50 (T47D) | GI50 (SK-MEL-28) | GI50 (M14) | GI50 (Hs-578T) | GI50 (CAKI-1) | GI50 (OVCAR-3) | GI50 (SF-539) | GI50 (HCT-15) | GI50 (MDA-N) | GI50 (NCI/ADR-RES) |
| --- | --- | --- | --- | --- | --- | --- | --- | --- | --- | --- | --- | --- | --- | --- | --- | --- | --- | --- | --- | --- |
| O=c1c2ccccc2sc2nc(CCl)nn12 | 31 µM (inactive) | 10.4 µM (inactive) | 77.4 µM (inactive) | 8.28 µM (inactive) | 24 µM (inactive) | > 100 µM (inactive) | 97.5 µM (inactive) | 2.32 µM (inactive) | 3.62 µM (inactive) | 8.28 µM (inactive) | 4.76 µM (inactive) | 10.8 µM (inactive) | 22 µM (inactive) | 2.17 µM (inactive) | 7.82 µM (inactive) | > 100 µM (inactive) | 32.4 µM (inactive) | 4.6 µM | 4.94 µM (inactive) | > 100 µM (inactive) |
| Cc1nc([N+](=O)[O-])cn1-c1nc2ccccn2c1[N+](=O)[O-] | > 100 µM (inactive) | 67.5 µM (inactive) | 80.2 µM (inactive) | 88.5 µM (inactive) | > 100 µM (inactive) | 81.8 µM (inactive) |  | 80.4 µM (inactive) | > 100 µM (inactive) | > 100 µM (inactive) | 43.7 µM (inactive) | > 100 µM (inactive) | > 100 µM (inactive) | > 100 µM (inactive) | 53.5 µM (inactive) | > 100 µM (inactive) | 68.2 µM (inactive) | > 100 µM | 57.4 µM (inactive) | > 100 µM (inactive) |
| CCOC(=O)C(NC(=O)c1cccc(Cl)c1)(N1CCN(c2cc3c(cc2F)c(=O)c(C(=O)O)cn3CC)CC1)C(F)(F)F (stereo unspecified) | 18.7 µM (inactive) | 21.3 µM (inactive) | 29.4 µM (inactive) | 19.2 µM (inactive) | 17.4 µM (inactive) | 14.2 µM (inactive) | 3.85 µM (inactive) | 5.73 µM (inactive) | 13.8 µM (inactive) | 14.5 µM (inactive) | 19.4 µM (inactive) | 17 µM (inactive) | 16.8 µM (inactive) | 15.6 µM (inactive) | 23.7 µM (inactive) | 14.8 µM (inactive) | 15.2 µM (inactive) | 17.6 µM | 14.9 µM (inactive) | 39.8 µM (inactive) |
| COc1cccc2c1C(=O)c1c(O)c3c(c(O)c1C2=O)C[C@@](O)(C(C)=O)C[C@@H]3OC1CC(N(C)C)C(O)C(C)O1 (stereo partly specified) | 0.00617 µM (active) | 0.00514 µM (active) | 0.00411 µM (active) | 0.00371 µM (active) | 0.00577 µM (active) | 0.00236 µM (active) | 0.00309 µM (active) | 0.00318 µM (active) | 0.084 µM (active) | 0.000489 µM (active) | 0.000196 µM (active) | 0.00516 µM (active) | 0.00439 µM (active) | 0.000123 µM (active) | 0.00904 µM (active) | 0.00649 µM (active) | 0.00417 µM (active) | 0.00389 µM | 0.000226 µM (active) | 0.0575 µM (active) |
| O=C(O)c1nc2ccccc2nc1NCc1ccc(F)cc1 | 57.7 µM (inactive) | > 100 µM (inactive) | 47.5 µM (inactive) | 45.3 µM (inactive) | > 100 µM (inactive) | 35.8 µM (inactive) | 67 µM (inactive) | 56.1 µM (inactive) | 95.1 µM (inactive) | > 100 µM (inactive) | 40.9 µM (inactive) | > 100 µM (inactive) | > 100 µM (inactive) | 61.8 µM (inactive) | 62.4 µM (inactive) | 42.2 µM (inactive) | > 100 µM (inactive) | 16.6 µM | > 100 µM (inactive) | 30.2 µM (inactive) |
| c1ccc(/C(=N/Nc2nc3ccccc3s2)C2CCCCC2)nc1 | 16.9 µM (inactive) | 2.47 µM (inactive) | 13.2 µM (inactive) | 3.04 µM (inactive) | 3.26 µM (inactive) | 6.24 µM (inactive) | 0.203 µM (active) | 7.05 µM (inactive) | 7.48 µM (inactive) | 14.8 µM (inactive) | 0.299 µM (active) | 10.4 µM (inactive) | 10.3 µM (inactive) | 19.6 µM (inactive) | 6.95 µM (inactive) | 2.92 µM (inactive) | 13.8 µM (inactive) | 2.77 µM | 14.4 µM (inactive) | 2.58 µM (inactive) |
| NNC(=O)c1cc(Cl)ccc1NC(=O)C12CC3CC(CC(C3)C1)C2 | 20.2 µM (inactive) | 28.4 µM (inactive) | 15.6 µM (inactive) | 17.1 µM (inactive) | 15.6 µM (inactive) | 25.9 µM (inactive) | 12.1 µM (inactive) | 29.2 µM (inactive) | 26.3 µM (inactive) | 29.3 µM (inactive) | 33 µM (inactive) | 29.9 µM (inactive) | 14.1 µM (inactive) | 31.8 µM (inactive) | 24.2 µM (inactive) | 25.5 µM (inactive) | 42.1 µM (inactive) | 27.8 µM | 26.2 µM (inactive) | 34.8 µM (inactive) |
| CNC(=S)N(C1CCCCC1)C1CCCCC1 | 56.9 µM (inactive) | > 100 µM (inactive) | > 100 µM (inactive) | 85.5 µM (inactive) | > 100 µM (inactive) | 49 µM (inactive) | 37.3 µM (inactive) | 29.9 µM (inactive) | 50.8 µM (inactive) | > 100 µM (inactive) | 44 µM (inactive) | > 100 µM (inactive) | > 100 µM (inactive) | 26.3 µM (inactive) | 70.6 µM (inactive) | > 100 µM (inactive) | > 100 µM (inactive) | > 100 µM | > 100 µM (inactive) | > 100 µM (inactive) |
| CC(C)(C)N1CC1CNC(=O)C(=O)NCC1CN1C(C)(C)C (stereo unspecified) | 3.93 µM (inactive) | 51.1 µM (inactive) | 13.7 µM (inactive) | 6.61 µM (inactive) | 2.62 µM (inactive) | 16.7 µM (inactive) | 1.57 µM (inactive) | 3.79 µM (inactive) | 9.51 µM (inactive) | 38.8 µM (inactive) | 22.2 µM (inactive) | 5.42 µM (inactive) | 3.61 µM (inactive) | 91 µM (inactive) | 6.31 µM (inactive) | 4.62 µM (inactive) | 2.94 µM (inactive) | 3.74 µM | 25.8 µM (inactive) | 2.55 µM (inactive) |
| CCC/N=C1\S/C(=C/c2ccc(OC)c(OC)c2)C(=O)N1c1ccccc1 | 42.1 µM (inactive) | 22.8 µM (inactive) | 17.8 µM (inactive) | 32.5 µM (inactive) | 44.9 µM (inactive) | 37.6 µM (inactive) | 33.9 µM (inactive) | > 100 µM (inactive) | 33.1 µM (inactive) | > 100 µM (inactive) | > 100 µM (inactive) | > 100 µM (inactive) | > 100 µM (inactive) | 9.1 µM (inactive) | 44.5 µM (inactive) | 12.6 µM (inactive) | 7.91 µM (inactive) | > 100 µM | > 100 µM (inactive) | 93.1 µM (inactive) |
| c1cc2nnc1SCCSCCCSCCS2 | > 100 µM (inactive) | > 100 µM (inactive) | 56.8 µM (inactive) | > 100 µM (inactive) | > 100 µM (inactive) | > 100 µM (inactive) | > 100 µM (inactive) | > 100 µM (inactive) | 46.5 µM (inactive) | > 100 µM (inactive) | > 100 µM (inactive) | 29.2 µM (inactive) | > 100 µM (inactive) | > 100 µM (inactive) | > 100 µM (inactive) | > 100 µM (inactive) | 20 µM (inactive) | > 100 µM | > 100 µM (inactive) | > 100 µM (inactive) |
| O=C(Nc1ccc(Cl)cc1)c1cc(S(=O)(=O)N2CCNNC2=O)c(S)cc1Cl | > 100 µM (inactive) | 52.5 µM (inactive) | > 100 µM (inactive) | > 100 µM (inactive) | > 100 µM (inactive) | > 100 µM (inactive) | > 100 µM (inactive) | > 100 µM (inactive) | 28.8 µM (inactive) | > 100 µM (inactive) | 35.6 µM (inactive) | > 100 µM (inactive) | > 100 µM (inactive) | > 100 µM (inactive) | > 100 µM (inactive) | > 100 µM (inactive) | > 100 µM (inactive) | > 100 µM | > 100 µM (inactive) | > 100 µM (inactive) |
| O=C(c1cccs1)N(C(=S)OCCOc1ccccc1)c1ccccc1 | 28.1 µM (inactive) | 41 µM (inactive) | 29.4 µM (inactive) |  | 28.4 µM (inactive) |  | 27.4 µM (inactive) | 36.1 µM (inactive) | 18.8 µM (inactive) | 17 µM (inactive) | 35.8 µM (inactive) | 24.8 µM (inactive) | 17 µM (inactive) | 58.6 µM (inactive) | 27.2 µM (inactive) | 21 µM (inactive) | 34.3 µM (inactive) | 27.4 µM | 17.2 µM (inactive) | 20.9 µM (inactive) |
| C/C=C/C=C/c1nc(C#N)c(N)o1 | 99.3 µM (inactive) | > 100 µM (inactive) | > 100 µM (inactive) | 18.3 µM (inactive) | > 100 µM (inactive) |  | 63.8 µM (inactive) | > 100 µM (inactive) | > 100 µM (inactive) | > 100 µM (inactive) | > 100 µM (inactive) | > 100 µM (inactive) | > 100 µM (inactive) | > 100 µM (inactive) | > 100 µM (inactive) | > 100 µM (inactive) | > 100 µM (inactive) | > 100 µM | > 100 µM (inactive) | > 100 µM (inactive) |
